pIC50: −log10 of the molar value. Activity calls are given as the source filed them. No cut-off for these calls is given here.
Legend:
[1] = system: Zika virus; assay: Antiviral activity against Zika virus infected in human A549 cells assessed as induction of redistribution of the ZIKV Env protein from ER to cytoplasm at 0.5 uM by confocal scanning microscopy; format: functional, organism-based
[2] = (§1) Inhibition of N-terminal hexa-histidine tagged Dengue virus 2 NS2B/NS3 protease I30A/L31A/T118C mutant expressed in Escherichia coli BL21-Gold (DE3) using fluorogenic AMC-substituted peptide boc-GRR-7-amino-4-methylcoumarin measured every 30 secs for 10 mins by fluorometric assay; design: species or system dengue virus type 2
[3] = as §1, with “I30A/L31A/T120C” for “I30A/L31A/T118C”, “(DE3) in presence of N-benzylmaleimide” for “(DE3)”; design: species or system dengue virus type 2
[4] = as §1, with “(DE3) in presence of N-benzylmaleimide” for “(DE3)”; design: species or system dengue virus type 2
[5] = molecular target: T1, Nonstructural protein 3 (Zika virus, UniProt A0A024AXB9); assay: Inhibition of Zika virus NS2B/NS3 protease
[6] = (§2) Inhibition of N-terminal hexa-histidine tagged Dengue virus 2 NS2B/NS3 protease I30A/L31A mutant expressed in Escherichia coli BL21-Gold (DE3) using fluorogenic AMC-substituted peptide boc-GRR-7-amino-4-methylcoumarin measured every 30 secs for 10 mins by fluorometric assay; design: species or system dengue virus type 2
[7] = system: Zika virus; assay: Antiviral activity against Zika virus Uganda infected in human A549 cells assessed as reduction in viral RNA at 5 uM measured after 24 to 72 hrs post infection by RT-qPCR analysis; format: functional, organism-based
[8] = system: A549; assay: Cytotoxicity against human A549 cells assessed as reduction in cell viability up to 5 uM by Presto blue cell viability reagent based assay
[9] = as §1, with “I30A/L31A/T120C” for “I30A/L31A/T118C”, “(DE3) in presence of N-ethylmaleimide” for “(DE3)”; design: species or system dengue virus type 2
[10] = Inhibition of N-terminal hexa-histidine tagged Dengue virus 2 NS2B/NS3 protease I30A/L31A/T120C mutant expressed in Escherichia coli BL21-Gold (DE3) using fluorogenic AMC-substituted peptide boc-GRR-7-amino-4-methylcoumarin measured every 30 secs for 10 mins by fluorometric assay; design: species or system dengue virus type 2
[11] = system: Zika virus; assay: Antiviral activity against Zika virus French Polynesia infected in human A549 cells assessed as reduction in viral RNA at 5 uM measured after 24 to 72 hrs post infection by RT-qPCR analysis; format: functional, organism-based
[12] = (§3) Inhibition of N-terminal hexa-histidine tagged Dengue virus 2 NS2B/NS3 protease I30A/L31A/T122C mutant expressed in Escherichia coli BL21-Gold (DE3) using fluorogenic AMC-substituted peptide boc-GRR-7-amino-4-methylcoumarin measured every 30 secs for 10 mins by fluorometric assay; design: species or system dengue virus type 2
[13] = system: Zika virus; assay: Antiviral activity against Zika virus infected in African green monkey Vero cells assessed as suppression of viral replication at 10 uM pre-incubated with cells for 1 hr before viral infection and measured after 4 days by RT-qPCR analysis; format: functional, organism-based
[14] = as §2, with “(DE3) in presence of N-benzylmaleimide” for “(DE3)”; design: species or system dengue virus type 2
[15] = as §3, with “(DE3) in presence of N-ethylmaleimide” for “(DE3)”; design: species or system dengue virus type 2
[16] = as §2, with “(DE3) in presence of N-ethylmaleimide” for “(DE3)”; design: species or system dengue virus type 2
[17] = molecular target: T1, Nonstructural protein 3; assay: Inhibition of N-terminal hexa-histidine tagged Zika virus NS2B/NS3 protease expressed in Escherichia coli BL21-Gold (DE3) using fluorogenic AMC-substituted peptide boc-GRR-7-amino-4-methylcoumarin measured every 30 secs for 10 mins by fluorometric assay
[18] = as §3, with “(DE3) in presence of N-benzylmaleimide” for “(DE3)”; design: species or system dengue virus type 2
[19] = Permeability in human C2BBe1 cells at 10 uM incubated for 3 hrs by LC-MS analysis relative to control; format: ADME, cell-based; conditions: c2bbe1, 3 h
[20] = Drug metabolism in rat liver microsomes assessed as formation of (R)-N-(5,6-Dimethoxybenzo[d]thiazol-2-yl)-1-((4-(hydroxymethyl) phenyl) sulfonyl)pyrrolidine-2-carboxamide in presence of NADPH generating system by LC-MS/MS analysis; format: ADME, Microsome
[21] = Drug metabolism in rat liver microsomes assessed as formation of (S)-1-Benzoyl-N-(5,6-dihydroxybenzo[d]thiazol-2-yl)pyrrolidine-2-carboxamide in presence of NADPH generating system by LC-MS/MS analysis; format: ADME, Microsome
[22] = Drug metabolism in rat liver microsomes assessed as formation of (R)-N-(5,6-Dihydroxybenzo[d]thiazol-2-yl)-1-tosylpyrrolidine-2-carboxamide in presence of NADPH generating system by LC-MS/MS analysis; format: ADME, Microsome
[23] = Drug metabolism in rat liver microsomes assessed as formation of (S)-N-(5,6-Dimethoxybenzo[d]thiazol-2-yl)-1-((4-(hydroxymethyl) phenyl) sulfonyl)pyrrolidine-2-carboxamide in presence of NADPH generating system by LC-MS/MS analysis; format: ADME, Microsome
[24] = system: dengue virus type 2; assay: Antiviral activity against Dengue virus 2 infected in African green monkey Vero cells assessed as suppression of viral replication at 10 uM pre-incubated with cells for 1 hr before viral infection and measured after 4 days by RT-qPCR analysis; format: functional, organism-based

T1 sequence (A0A024AXB9 whole entry): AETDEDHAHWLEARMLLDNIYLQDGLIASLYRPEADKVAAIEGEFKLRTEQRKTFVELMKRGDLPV

**Q.** Which results are given for `O=C(Nc1nc2cc(O)c(O)cc2s1)c1ccccc1Oc1ccc2cc(O)ccc2c1`?
**A.** Activity [1]: inactive; pIC50 [2]: 6.00; pIC50 [3]: 4.90; pIC50 [4]: 5.15; pIC50 [5]: 5.85; pIC50 [6]: 5.37 to 5.38; Activity [7]: inactive; Activity [8]: Non-Toxic; pIC50 [9]: 5.07; pIC50 [10]: 5.71; Activity [11]: inactive; pIC50 [12]: 5.57; Activity [13]: inactive; pIC50 [14]: 5.30; pIC50 [15]: 4.85; pIC50 [16]: 5.39; pIC50 [17]: 5.85; pIC50 [18]: 4.80

**Q.** What does the source list for `COc1cc2nc(NC(=O)[C@H]3CCCN3S(=O)(=O)c3ccc(C)cc3)sc2cc1OC`?
**A.** permeability [19]: 91%; Drug metabolism [20]: Metabolite_Detected; Drug metabolism [21]: Metabolite_Detected; Activity [7]: inactive; Activity [8]: Non-Toxic; Drug metabolism [22]: Metabolite_Detected; Drug metabolism [23]: Metabolite_Detected; Activity [11]: inactive; Activity [24]: Active; Activity [13]: inactive
